Data on 64 molecules can be found in a melting point compilation (Tetko et al.; mined from patent text by program, amines drawn as free bases though some values may be those of a salt).

Molecule `CS(=O)(=O)c1ccc(CC(=O)c2c(O)c3cccnc3n(-c3ccccc3)c2=O)cc1` displayed a melting point of 260 to 262 °C. Turning to `CNC(=O)OCc1c(COC(=O)NC)c(-c2ccc(OC)cc2)n2c1Cc1ccccc1C2`, the melting point lay within 182 to 184 °C.

Consider `CC(C)=CCOc1ccc(C(=O)C=Cc2cccnc2)c(O)c1`, for which the melting point was 177 to 179 °C. As for `CCOC(=O)C1=C(C)NC(c2cscn2)=NC1c1cccc(C)c1` (centres undefined), the figure is 133 to 134 °C. The value for `CN1CCC(c2c[nH]c3ccc(NC(=O)c4sccc4Br)nc23)CC1` was 245 to 247 °C; that for `CCOC(=O)c1c(C(=O)OC)c(O)c2cc(OC)c(OC)c(OC)c2c1-c1ccc(OC)c(OC)c1` was 157 to 159 °C; that for `FCc1nc(C#CCCc2cn3cc(F)ccc3n2)cs1` was 82 to 84 °C. `CN(C)C1CCN(S(=O)(=O)c2ccc(Nc3ccnc4cc(Cl)ccc34)cc2)CC1` came in with a melting point of 230 to 231 °C. The value for `O=[N+]([O-])c1cc(C(F)(F)F)ccc1N1CCc2ccccc21` was 89 to 92 °C. As for `O=C(O)Cn1c(=O)n(Cc2ccc(Br)cc2F)c(=O)c2ccc(Br)cc21`, the figure is 217 °C; as for `O=C(O)Cc1ccc(-c2nc3cccc(Cl)c3o2)cc1`, 205 to 210 °C; as for `CCOC(=O)c1cccc(Oc2ncccc2OCCCc2ccncc2O)c1`, 76 to 79 °C.

`NC(=NCC(F)(F)F)Nc1nc(CCCCNc2nc3ccccc3[nH]2)cs1` displayed a melting point of 183 to 186 °C. The value for `CCOc1cc(C(=O)O)cc(S(N)(=O)=O)c1-c1ccccc1` was 149 to 150 °C; that for `CCOC(=O)CNC(=O)c1oc2cc(-c3ccc(Cn4c(C)nc5ccccc54)cc3)ccc2c1C` was 184 to 186 °C; that for `CCCc1c(OCCCSc2ccc(C(=O)CCCCC(=O)O)cc2)ccc(C(C)=O)c1O` was 130 to 132 °C.

In turn, `CCCc1cc2c(=O)[nH]c(C(=O)OCC)nc2s1` yielded a melting point of 169 to 170 °C. `CCOC(=O)CCc1c(C)nc(SCc2ccc(OC)cc2)n1C` returned a melting point of 63 °C. The value for `CN(C)C(=O)c1cccn1N1C(=O)c2ccccc2C1=O` was 153 to 155 °C; that for `O=C(O)CCC(CCCCNS(=O)(=O)c1ccc(Cl)cc1)CCCc1cccnc1` (centres undefined) was 116 to 118 °C. As for `CCN(CC)C(=O)Nc1ccc(S(=O)(=O)N2C(=O)C(C)(c3cc(C(=O)NCc4cccnc4)ccc3Cl)c3cc(Cl)ccc32)c(OC)c1` (centres undefined), the figure is 148 °C; as for `c1ccc(Cn2c(-c3ccc4c(c3)OCO4)nc3ccccc32)cc1`, 143 to 145 °C; as for `CCOC(=O)c1c(Cn2cnnc2)nc2cc(OC)c(OC)cc2c1-c1ccc(OC)cc1`, 218 to 219 °C. On to `CC(C)(C)OC(=O)OCn1c(C(=O)Nc2nc(-c3ccccc3)c(CCO)s2)cc2ccccc21`, for which the melting point fell in the range of 180 to 181 °C.

As to `Cn1cc2c([C@H]3C[C@H]3CN)cccc2n1` (relative stereo), the melting point lay in the range of 155 to 156 °C. On to `CC(C)(C)C(=O)CN1CCNC1=N[N+](=O)[O-]`, for which the melting point lay within 158 to 159 °C. Molecule `COC(=O)c1cc(OC)c(Cl)cc1N` gave a melting point of 63 to 64 °C.

In the case of `C[C@@H]1OC(=O)C2=C[C@H]3CCCC[C@@H]3[C@@H](O)[C@H]21`, the melting point was 191 to 193 °C.

With `CN(c1cccc2cc(C(=O)O)[nH]c12)S(=O)(=O)c1ccccc1C(F)(F)F`, the melting point was in the range of 211 to 212 °C.

In turn, `COC(=O)CCSCCNC(=O)/C=C/C=C/c1ccccc1` had a melting point of 58 to 60 °C. The value for `C[C@H](NC(=O)c1ccc(N)cc1F)C(=O)O` was 244 to 248 °C; that for `COC(=O)c1cc(COC(C)=O)cc(-n2cccc2C#N)c1` was 85 to 86 °C. Molecule `Cc1ccc2nccc(Cl)c2c1` registered a melting point of 47 to 51 °C. The value for `CC(C)CC(CO)NC(=O)OCC1c2ccccc2-c2ccccc21` (centres undefined) was 131 to 133 °C; that for `CCOC(=O)C(C)(C)S(=O)(=O)c1ccc(OC)cc1` was 196 °C. As for `O=Cc1ccc(O)c(OCc2ccccc2)c1Cl`, the figure is 149 to 150 °C; as for `CN1CC(c2ccc(Cl)cc2)=NNC1=O`, 195 to 197 °C; as for `NS(=O)(=O)c1ccc(-n2nc(C(F)(F)F)cc2-c2ccc(-c3cnco3)cc2)cc1`, 128 to 130 °C. The value for `N#Cc1ccc(CCc2ccc(CN3C(=O)c4ccccc4C3=O)cc2)cc1` was 194 to 197 °C; that for `CCOC(=O)C(=O)c1cn(CC)c2cc(-c3ccc(C(F)(F)F)cc3)ccc12` was 139 to 141 °C. `CCOC(=O)c1ccc(C(=O)C2=NS(=O)(=O)c3ccccc3C2=O)cc1`: the melting point is 161 °C. As for `CN1C(=O)CN=C(c2ccccc2F)c2cc(NC(=O)NCCO)ccc21`, the figure is 156 to 160 °C. As for `CCCCCCCCCCCCCCCCCC(=O)N1CC(O)C1`, the figure is 86 to 87.5 °C; as for `CC(C)Oc1ccc(N)c(C(=O)O)c1`, 120 to 122 °C. As for `CS(=O)(=O)Nc1ccc(C(=O)CN2CCN(c3cccnc3)CC2)cc1`, the figure is 197 to 198 °C. In the case of `CCN1CNS(=O)(=O)c2cc(O)ccc21`, the melting point lay within 214 to 218 °C. The value for `Cc1ccc2c3c(ccc2n1)OC[C@H](CNC(=O)C1CCc2c([nH]c4ccc(F)cc24)C1)O3` (some centres undefined) was 92 to 96 °C; that for `Cc1ccc(S(=O)(=O)c2ccc3c(c2)C(O)C(Br)C(C)(C)O3)cc1` (centres undefined) was 141 to 142 °C; that for `COC(C)(C)c1ccc(Cl)c2nc3n(c12)CCCN3c1ccc(Cl)cc1Cl` was 203 to 204 °C. As for `C(CCc1ccccc1)=C1CCN(Cc2nc3ccccc3[nH]2)CC1`, the figure is 163 to 165 °C; as for `O=c1[nH]c2ccccc2n1CCCCCCCl`, 80 to 84 °C. `Cc1nnc2n1-c1ccc(Cl)cc1C(=S)NC2` returned a melting point of 298 to 303 °C. As for `CC(C)(C)c1ccccc1N1CCN(C(=O)C(=O)Nc2ccccn2)CC1`, the figure is 168 to 172 °C; as for `COc1cc2c(cc1OCc1ccccc1)CCN(C(=O)NCCN(C)C1CCCCC1)C2c1ccccc1` (centres undefined), 109 to 110 °C; as for `COc1ccc(CC(=O)NC(NC(=NC#N)Nc2c(F)cc(F)cc2F)C(C)(C)C)cc1OC` (centres undefined), 170 to 171 °C.

With `O=C(OO)c1ccc([N+](=O)[O-])cc1`, the melting point was in the range of 251 to 252 °C. As for `CC(C)(C)c1ccc(S(=O)(=O)N2CCCC2=O)cc1`, the figure is 131 to 133 °C.

Regarding `O=C1c2cc([N+](=O)[O-])ccc2OCCC1Br` (centres undefined), the melting point fell in the range of 115 to 118 °C. As for `Cc1cc(-c2nn(CC(C)C)c(=O)c(O)c2C)ccc1F`, the figure is 107 to 110 °C; as for `CC(O)C(NC(=O)OC(C)(C)C)C(=O)OCC(=O)c1ccccc1` (centres undefined), 114 °C; as for `Cc1oc(-c2ccccc2)nc1COc1cccc(C=CC=C2OC(=O)NC2=O)c1`, 229 to 230 °C. As for `Cc1ccc(-c2cc(C(=O)O)nn2Cc2ccc(C)c(Cl)c2)cc1`, the figure is 108 °C.

For the molecule `c1ccc2c(c1)ncc1cncn12`, the melting point was in the range of 175 to 179 °C. As for `CC1=C(C(=O)O)C(c2ccccc2Cl)C(c2nnco2)=C(C)N1` (centres undefined), the figure is 187 to 190 °C.
